Assays:
Assay type in all cases: biochemical
[1] = test system: α-isomaltosyl-transferring enzyme from Bacillus globisporus C11; experiment: Specificity to transferring acceptor; details: panose as saccharide donor, 10 units/g substrate, 3.2% (w/v), 30° C., pH 6.0, 24 hours
In short: (§1)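 Scoring is presence or absence of a transfer product, detected by HPLC for tri- or larger saccharides and by GLC for smaller ones. Reactions: 3.2% (w/v) saccharide with panose as donor in equal amount, 10 units/g substrate of purified or partially purified enzyme, pH 6.0, 30 °C, 24 h.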

[2] = test system: α-isomaltosyl-transferring enzyme from Bacillus globisporus C9; experiment: Specificity to transferring acceptor; details: panose as saccharide donor, 10 units/g substrate, 3.2% (w/v), 30° C., pH 6.0, 24 hours
In short: as §1

[3] = test system: α-isomaltosyl-transferring enzyme from Arthrobacter globiformis A19; experiment: Specificity to transferring acceptor; details: partially purified enzyme, panose as saccharide donor, 10 units/g substrate, 3.2% (w/v), 30° C., pH 6.0, 24 hours
In short: as §1

[4] = test system: α-isomaltosyl-transferring enzyme from Bacillus globisporus N75; experiment: Specificity to transferring acceptor; details: panose as saccharide donor, 10 units/g substrate, 3.2% (w/v), 30° C., pH 6.0, 24 hours
In short: as §1

[5] = test system: α-isomaltosyl-transferring enzyme from Arthrobacter ramosus S1; experiment: Specificity to transferring acceptor; details: panose as saccharide donor, 10 units/g substrate, 3.2% (w/v), 30° C., pH 6.0, 24 hours
In short: as §1

[6] = test system: α-isomaltosyl-transferring enzyme from Bacillus globisporus C11; experiment: Action on saccharides (substrates, TLC); parameters: key: −: there was found no substrate change before and after the enzymatic reaction; +: there were found both the reduction of substrate and the formation of cyclotetrasaccharide after the enzymatic reaction; details: 2 units/g substrate, 2% (w/v) substrate, 30° C., pH 6.0, 24 hours
From the text: (§2) To examine the saccharides in the supernatant, they were separated from the supernatant by silica gel thin-layer chromatography (abbreviated as “TLC” hereinafter) using, as a developer, a mixture solution of n-butanol, pyridine, and water (=6:4:1), and, as a thin-layer plate, “[…] 60”, an aluminum plate (20×20 cm) for TLC commercialized by […]. The coloration of both the separated total sugars by the sulfuric acid-methanol method and the reducing saccharides by the diphenylamine-aniline method detected a non-reducing saccharide at a position with an Rf value of about 0.31, which was positive on the former detection method but negative on the latter detection method.
(§3) It was tested whether saccharides can be used as substrates for the α-isomaltosyl-transferring enzyme. For the purpose, a solution of maltose, maltotriose, maltotetraose, maltopentaose, maltohexaose, maltoheptaose, isomaltose, isomaltotriose, panose, isomaltosylmaltose, isopanose, α,α-trehalose, kojibiose, nigerose, α,β-trehalose, cellobiose, gentibiose, maltitol, maltotriitol, lactose, sucrose, α-cyclodextrin, β-cyclodextrin, γ-cyclodextrin, soluble starch, pullulan, or dextran was prepared. To each of the above solutions was added two units/g substrate of a purified specimen of either α-isomaltosyl-transferring enzyme from Bacillus globisporus C9 obtained by the method in Experiment 4, Bacillus globisporus C11 obtained by the method in Experiment 7, Bacillus globisporus N75 obtained by the method in Experiment 11, or Arthrobacter ramosus S1 obtained by the method in Experiment 15, or a partially purified α-isomaltosyl-transferring enzyme from Arthrobacter globiformis A19 obtained by the method in Experiment 15. The resulting each solution was adjusted to give a substrate concentration of 2% (w/v) and incubated at 30° C. and pH 6.0 for 24 hours. The enzyme solutions before and after the enzymatic reactions were respectively analyzed on TLC as disclosed in Experiment 1 to confirm whether the enzymes acted on these substrates.

[7] = test system: α-isomaltosyl-transferring enzyme from Bacillus globisporus C9; experiment: Action on saccharides (substrates, TLC); parameters: key: −: there was found no substrate change before and after the enzymatic reaction; +: there were found both the reduction of substrate and the formation of cyclotetrasaccharide after the enzymatic reaction; details: 2 units/g substrate, 2% (w/v) substrate, 30° C., pH 6.0, 24 hours
From the text: as §2, §3

[8] = test system: α-isomaltosyl-transferring enzyme from Arthrobacter globiformis A19; experiment: Action on saccharides (substrates, TLC); parameters: key: −: there was found no substrate change before and after the enzymatic reaction; +: there were found both the reduction of substrate and the formation of cyclotetrasaccharide after the enzymatic reaction; details: partially purified enzyme, 2 units/g substrate, 2% (w/v) substrate, 30° C., pH 6.0, 24 hours
From the text: as §2, §3

[9] = test system: α-isomaltosyl-transferring enzyme from Bacillus globisporus N75; experiment: Action on saccharides (substrates, TLC); parameters: key: −: there was found no substrate change before and after the enzymatic reaction; +: there were found both the reduction of substrate and the formation of cyclotetrasaccharide after the enzymatic reaction; details: 2 units/g substrate, 2% (w/v) substrate, 30° C., pH 6.0, 24 hours
From the text: as §2, §3

[10] = test system: α-isomaltosyl-transferring enzyme from Arthrobacter ramosus S1; experiment: Action on saccharides (substrates, TLC); parameters: key: −: there was found no substrate change before and after the enzymatic reaction; +: there were found both the reduction of substrate and the formation of cyclotetrasaccharide after the enzymatic reaction; details: 2 units/g substrate, 2% (w/v) substrate, 30° C., pH 6.0, 24 hours
From the text: as §2, §3

Compound	Product of transferring reaction, Enzyme of Strain C11 [1]	Product of transferring reaction, Enzyme of Strain C9 [2]	Product of transferring reaction, Enzyme of Stain A19 [3]	Product of transferring reaction, Enzyme of Strain N75 [4]	Product of transferring reaction, Enzyme of Strain S1 [5]	Enzymatic action for forming cyclotetrasaccharide, Enzyme of Strain C11 [6]	Enzymatic action for forming cyclotetrasaccharide, Enzyme of Strain C9 [7]	Enzymatic action for forming cyclotetrasaccharide, Enzyme of Strain A19 [8]	Enzymatic action for forming cyclotetrasaccharide, Enzyme of Strain N75 [9]	Enzymatic action for forming cyclotetrasaccharide, Enzyme of Strain S1 [10]
OC[C@H]1O[C@@H](OC[C@H]2OC(O)[C@H](O)[C@@H](O)[C@@H]2O)[C@H](O)[C@@H](O)[C@@H]1O (some centres unmarked) [Gentibiose, gentibiose]	++ (a saccharide-transferred product was formed in an amount of over 10% to the total sugars)	++ (a saccharide-transferred product was formed in an amount of over 10% to the total sugars)	+ (a saccharide-transferred product was formed in an amount of over one percent but below 10% to the total sugars)	++ (a saccharide-transferred product was formed in an amount of over 10% to the total sugars)	+ (a saccharide-transferred product was formed in an amount of over one percent but below 10% to the total sugars)	−	−	−	−	−
OC[C@H]1O[C@H](OC[C@H]2OC(O)[C@H](O)[C@@H](O)[C@@H]2O)[C@H](O)[C@@H](O)[C@@H]1O (some centres unmarked) [Isomaltose, isomaltose]	++ (a saccharide-transferred product was formed in an amount of over 10% to the total sugars)	++ (a saccharide-transferred product was formed in an amount of over 10% to the total sugars)	++ (a saccharide-transferred product was formed in an amount of over 10% to the total sugars)	++ (a saccharide-transferred product was formed in an amount of over 10% to the total sugars)	++ (a saccharide-transferred product was formed in an amount of over 10% to the total sugars)	−	−	−	−	−
OC[C@H]1O[C@H](OC[C@H]2O[C@H](OC[C@H]3OC(O)[C@H](O)[C@@H](O)[C@@H]3O)[C@H](O)[C@@H](O)[C@@H]2O)[C@H](O)[C@@H](O)[C@@H]1O (some centres unmarked) [Isomaltotriose, isomaltotriose]	+ (a saccharide-transferred product was formed in an amount of over one percent but below 10% to the total sugars)	+ (a saccharide-transferred product was formed in an amount of over one percent but below 10% to the total sugars)	+ (a saccharide-transferred product was formed in an amount of over one percent but below 10% to the total sugars)	+ (a saccharide-transferred product was formed in an amount of over one percent but below 10% to the total sugars)	++ (a saccharide-transferred product was formed in an amount of over 10% to the total sugars)	−	−	−	−	−
OC[C@H]1O[C@H](O[C@H]2[C@H](O)[C@@H](O)[C@@H](OC[C@H]3OC(O)[C@H](O)[C@@H](O)[C@@H]3O)O[C@@H]2CO)[C@H](O)[C@@H](O)[C@@H]1O (some centres unmarked) [Isopanose, isopanose]	+ (a saccharide-transferred product was formed in an amount of over one percent but below 10% to the total sugars)	+ (a saccharide-transferred product was formed in an amount of over one percent but below 10% to the total sugars)	+ (a saccharide-transferred product was formed in an amount of over one percent but below 10% to the total sugars)	+ (a saccharide-transferred product was formed in an amount of over one percent but below 10% to the total sugars)	+ (a saccharide-transferred product was formed in an amount of over one percent but below 10% to the total sugars)	−	−	−	−	−
OC[C@H]1O[C@H](O[C@H]2C(O)O[C@H](CO)[C@@H](O)[C@@H]2O)[C@H](O)[C@@H](O)[C@@H]1O (some centres unmarked) [Kojibiose, kojibiose]	+ (a saccharide-transferred product was formed in an amount of over one percent but below 10% to the total sugars)	+ (a saccharide-transferred product was formed in an amount of over one percent but below 10% to the total sugars)	+ (a saccharide-transferred product was formed in an amount of over one percent but below 10% to the total sugars)	+ (a saccharide-transferred product was formed in an amount of over one percent but below 10% to the total sugars)	+ (a saccharide-transferred product was formed in an amount of over one percent but below 10% to the total sugars)	−	−	−	−	−

Reference: patent publication US7192746B2, “α-Isomaltosyltransferase, process for producing the same and use thereof” (Kabushiki Kaisha Hayashibara Seibutsu Kagaku Kenkyujo, priority 2000, dated 2007)
